23 compounds from patent US9624214B2, “Amino-substituted imidazo[1,2-a]pyridinecarboxamides and their use” (BAYER PHARMA AKTIENGESELLSCHAFT, priority 2012, dated 2017) can be followed below.

The structures appear in SMILES notation.

The assay addresses T1, recombinant guanylate cyclase reporter cell line (Rattus norvegicus, UniProt P19686+P20595).
T1 construct: expressed in transfected cells
T1 sequence (P20595 1-619): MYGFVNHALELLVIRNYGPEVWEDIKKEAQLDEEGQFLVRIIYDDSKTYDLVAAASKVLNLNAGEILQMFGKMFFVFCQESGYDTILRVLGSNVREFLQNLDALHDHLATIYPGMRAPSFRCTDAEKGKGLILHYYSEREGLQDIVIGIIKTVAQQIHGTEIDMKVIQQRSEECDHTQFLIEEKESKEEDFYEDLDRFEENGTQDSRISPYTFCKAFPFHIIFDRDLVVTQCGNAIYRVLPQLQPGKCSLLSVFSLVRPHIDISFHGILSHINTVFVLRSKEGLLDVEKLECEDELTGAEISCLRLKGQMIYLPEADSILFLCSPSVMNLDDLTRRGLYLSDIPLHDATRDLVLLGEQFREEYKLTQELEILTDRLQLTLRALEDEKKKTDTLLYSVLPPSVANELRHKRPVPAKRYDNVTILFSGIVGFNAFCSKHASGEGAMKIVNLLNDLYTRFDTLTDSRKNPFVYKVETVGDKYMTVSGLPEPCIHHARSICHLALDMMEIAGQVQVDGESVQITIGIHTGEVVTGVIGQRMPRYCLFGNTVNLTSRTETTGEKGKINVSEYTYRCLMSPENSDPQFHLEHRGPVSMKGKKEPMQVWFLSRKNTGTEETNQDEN
T1 sequence (P19686 1-690): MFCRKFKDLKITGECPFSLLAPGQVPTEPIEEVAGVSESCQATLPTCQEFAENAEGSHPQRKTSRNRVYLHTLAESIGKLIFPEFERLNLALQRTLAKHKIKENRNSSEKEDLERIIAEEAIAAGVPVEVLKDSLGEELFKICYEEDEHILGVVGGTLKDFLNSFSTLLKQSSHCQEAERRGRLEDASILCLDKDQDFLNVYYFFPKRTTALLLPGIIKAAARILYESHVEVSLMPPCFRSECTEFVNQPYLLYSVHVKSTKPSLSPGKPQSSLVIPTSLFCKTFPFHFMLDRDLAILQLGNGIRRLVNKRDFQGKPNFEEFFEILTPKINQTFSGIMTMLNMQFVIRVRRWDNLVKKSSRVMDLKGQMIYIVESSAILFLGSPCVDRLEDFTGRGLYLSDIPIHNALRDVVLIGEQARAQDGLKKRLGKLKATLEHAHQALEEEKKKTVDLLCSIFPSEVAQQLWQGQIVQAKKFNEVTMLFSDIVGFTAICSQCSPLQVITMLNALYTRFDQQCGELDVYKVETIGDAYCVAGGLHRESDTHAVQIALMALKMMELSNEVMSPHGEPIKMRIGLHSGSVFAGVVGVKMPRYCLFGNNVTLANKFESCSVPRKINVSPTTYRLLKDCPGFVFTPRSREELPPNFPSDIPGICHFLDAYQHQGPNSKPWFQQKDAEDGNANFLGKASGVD
As to the kind of experiment: B-2. Action on recombinant guanylate cyclase reporter cell line. Conditions: MEC = minimal effective concentration; in some cases mean values from individual determinations. Type of assay: cell-based. The procedure, abridged:
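Cellular activity was measured in a reporter cell line expressing recombinant guanylate cyclase. Values are given as MEC, the minimal effective concentration, and some are means of individual determinations.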
In the case of `CSCCC(N)CNC(=O)c1c(C)nc2c(OCc3c(F)cccc3F)cc(C)cn12` (racemic) [Example 412, rac-N-[2-amino-4-(methylsulfanyl)butyl]-8-[(2,6-difluorobenzyl)oxy]-2,6-dimethylimidazo[1,2-a]pyridine-3-carboxamide], the MEC is 0.10 µM.
In the case of `Cc1cc(OCc2c(F)cccc2F)c2nc(C)c(C(=O)NCC(N)c3csc4ccccc34)n2c1` (racemic) [Example 373, rac-N-[2-amino-2-(1-benzothiophen-3-yl)ethyl]-8-[(2,6-difluorobenzyl)oxy]-2,6-dimethylimidazo[1,2-a]pyridine-3-carboxamide] it was 3.00 µM; in that of `COCC(N)CNC(=O)c1c(C)nc2c(OCc3c(F)cccc3F)cc(C)cn12` (single isomer, unassigned) [Example 242, ent-N-(2-Amino-3-methoxypropyl)-8-[(2,6-difluorobenzyl)oxy]-2,6-dimethylimidazo[1,2-a]-pyridine-3-carboxamide], 0.30 µM; in that of `Cc1nc2c(OCc3c(F)cccc3F)cccn2c1C(=O)NC(CN)COc1ccc(F)cc1` (racemic) [Example 58, rac-N-[1-amino-3-(4-fluorophenoxy)propan-2-yl]-8-[(2,6-difluorobenzyl)oxy]-2-methylimidazo[1,2-a]pyridine-3-carboxamide], 1.00 µM.
The value for `Cc1cc(OCc2c(F)cccc2F)c2nc(C)c(C(=O)NCC(C)(N)COc3ccc(F)c(F)c3)n2c1` (racemic) [Example 350, rac-N-[2-amino-3-(3,4-difluorophenoxy)-2-methylpropyl]-8-[(2,6-difluorobenzyl)oxy]-2,6-dimethylimidazo[1,2-a]pyridine-3-carboxamide] was 1.00 µM.
In the case of `Cc1nc2c(OCc3c(F)cccc3F)cc(C(F)F)cn2c1C(=O)NCC(C)(N)CF` (single isomer, unassigned; enantiomer b) [Example 292, ent-N-(2-amino-3-fluoro-2-methylpropyl)-8-[(2,6-difluorobenzyl)oxy]-6-(difluoromethyl)-2-methylimidazo[1,2-a]pyridine-3-carboxamide (Enantiomer B)] it was 0.03 µM.
Take `CCCC(C)(N)CNC(=O)c1c(C(F)(F)F)nc2c(OCc3c(F)cccc3F)cc(C)cn12` (stereo not drawn) [Example 305, ent-N-(2-amino-2-methylpentyl)-8-[(2,6-difluorobenzyl)oxy]-6-methyl-2-(trifluoromethyl)imidazo[1,2-a]pyridine-3-carboxamide]: the MEC amounted to 0.10 µM.
In the case of `Cc1cc(OCc2c(F)cccc2F)c2nc(C)c(C(=O)NCC(N)c3ccc(C)o3)n2c1` (racemic) [Example 369, rac-N-[2-amino-2-(5-methyl-2-furyl)ethyl]-8-[(2,6-difluorobenzyl)oxy]-2,6-dimethylimidazo[1,2-a]pyridine-3-carboxamide] it was 0.30 µM; in that of `CCCc1nc2c(OCc3c(F)cccc3F)cc(C)cn2c1C(=O)NCC(C)(N)CC` (stereo not drawn) [Example 327, ent-N-(2-amino-2-methylbutyl)-8-[(2,6-difluorobenzyl)oxy]-6-methyl-2-propylimidazo[1,2-a]pyridine-3-carboxamide], 1.00 µM.
As for `Cc1cc(OCc2c(F)cccc2F)c2nc(C)c(C(=O)NCC(N)COC(C)C)n2c1` (racemic) [Example 206, rac-N-(2-Amino-3-isopropoxypropyl)-8-[(2,6-difluorobenzyl)oxy]-2,6-dimethylimidazo[1,2-a]-pyridine-3-carboxamide], the MEC turned out to be 0.30 µM.
The value for `Cc1nc2c(OCC3CCCCC3)cccn2c1C(=O)NC(CN)c1ccc(F)c(F)c1` (single isomer, unassigned) [Example 178, ent-N-[2-Amino-1-(3,4-difluorophenyl)ethyl]-8-(cyclohexylmethoxy)-2-methylimidazo[1,2-a]-pyridine-3-carboxamide] was 0.30 µM; that for `Cc1cc(OCc2c(F)cccc2F)c2nc(C)c(C(=O)NC3CCNCC3(F)F)n2c1` (racemic) [Example 299, rac-8-[(2,6-difluorobenzyl)oxy]-N-(3,3-difluoropiperidin-4-yl)-2,6-dimethylimidazo[1,2-a]pyridine-3-carboxamide] was 0.10 µM; that for `COCC(N)CNC(=O)c1c(C)nc2c(OCc3c(F)cccc3F)cc(C)cn12` (single isomer, unassigned) [Example 243, ent-N-(2-Amino-3-methoxypropyl)-8-[(2,6-difluorobenzyl)oxy]-2,6-dimethylimidazo[1,2-a]-pyridine-3-carboxamide] was 1.00 µM.
The value for `Cc1nc2c(OCc3c(F)cccc3F)cccn2c1C(=O)NC(CN)c1ccc(F)c(F)c1` (racemic) [Example 11, rac-N-[2-Amino-1-(3,4-difluorophenyl)ethyl]-8-[(2,6-difluorobenzyl)oxy]-2-methylimidazo[1,2-a]pyridine-3-carboxamide] was 0.30 µM; that for `CCN1C2CCCC1CC(NC(=O)c1c(C)nc3c(OCc4c(F)cccc4F)cccn13)C2` (centres unmarked) [Example 71, 8-[(2,6-Difluorobenzyl)oxy]-N-(9-ethyl-9-azabicyclo[3.3.1]non-3-yl)-2-methylimidazo[1,2-a]-pyridine-3-carboxamide] was 0.30 µM; that for `Cc1nc2c(OCc3c(F)cccc3F)cccn2c1C(=O)NCC(C)(C)N` [Example 72, N-(2-Amino-2-methylpropyl)-8-[(2,6-difluorobenzyl)oxy]-2-methylimidazo[1,2-a]pyridine-3-carboxamide] was 0.30 µM.
Consider `Cc1nc2c(OCc3c(F)cccc3F)cc(C(F)F)cn2c1C(=O)NCC(C)(N)CF` (single isomer, unassigned; enantiomer a) [Example 291, ent-N-(2-amino-3-fluoro-2-methylpropyl)-8-[(2,6-difluorobenzyl)oxy]-6-(difluoromethyl)-2-methylimidazo[1,2-a]pyridine-3-carboxamide (Enantiomer A)], for which the MEC came out at 1.0 µM.
`Cc1nc2c(OCc3c(F)cccc3F)cccn2c1C(=O)NC(CNCC(F)(F)F)c1ccc(F)c(F)c1` (single isomer, unassigned; ent-8) [Example 222, ent-8-[(2,6-Difluorobenzyl)oxy]-N-{1-(3,4-difluorophenyl)-2-[(2,2,2-trifluoroethyl)amino]ethyl}-2-methylimidazo[1,2-a]pyridine-3-carboxamide]: the MEC came out at 0.30 µM.
As for `CCCC[C@H](CN(CC)CC)NC(=O)c1c(C)nc2c(OCc3c(F)cccc3F)cccn12` [Example 69, ent-N-[(2R)-1-(diethylamino)hexan-2-yl]-8-[(2,6-difluorobenzyl)oxy]-2-methylimidazo[1,2-a]-pyridine-3-carboxamide], the MEC worked out at 1.00 µM.
In the case of `Cc1cc(OCc2c(F)cccc2F)c2nc(C)c(C(=O)NCC(N)C#N)n2c1` (racemic) [Example 400, rac-N-(2-amino-2-cyanoethyl)-8-[(2,6-difluorobenzyl)oxy]-2,6-dimethylimidazo[1,2-a]pyridine-3-carboxamide] it was 0.65 µM; in that of `Cc1nc2c(OCc3c(F)cccc3F)cccn2c1C(=O)NC1CC2CCC(C1)N2C` (centres unmarked) [Example 91, 8-[(2,6-difluorobenzyl)oxy]-2-methyl-N-(8-methyl-8-azabicyclo[3.2.1]oct-3-yl)imidazo[1,2-a]pyridine-3-carboxamide], 1.00 µM; in that of `Cc1nc2c(OCc3c(F)cccc3F)cccn2c1C(=O)NC1CCN(Cc2ccccc2)C1` (racemic) [Example 85, rac-N-(1-benzylpyrrolidin-3-yl)-8-[(2,6-difluoro-benzyl)oxy]-2-methylimidazo[1,2-a]-pyridine-3-carboxamide], 1.00 µM.
In the case of `Cc1cc(OCc2c(F)cccc2F)c2nc(C)c(C(=O)NC3CCC3(C)N)n2c1` (racemic) [Example 331, rac-N-(2-amino-2-methylcyclobutyl)-8-[(2,6-difluorobenzyl)oxy]-2,6-dimethylimidazo[1,2-a]pyridine-3-carboxamide] it was 0.30 µM.
